Results as given in US10130642B2, “Neprilysin inhibitors” (THERAVANCE BIOPHARMA R&D IP, LLC, priority 2011, dated 2018).

Each compound was assayed against human NEP (Homo sapiens (Human), UniProt P08473) (assay: In vitro enzyme inhibition assay, inhibitor potencies at human NEP). Conditions: not given.
human NEP, sequence (P08473 52-750): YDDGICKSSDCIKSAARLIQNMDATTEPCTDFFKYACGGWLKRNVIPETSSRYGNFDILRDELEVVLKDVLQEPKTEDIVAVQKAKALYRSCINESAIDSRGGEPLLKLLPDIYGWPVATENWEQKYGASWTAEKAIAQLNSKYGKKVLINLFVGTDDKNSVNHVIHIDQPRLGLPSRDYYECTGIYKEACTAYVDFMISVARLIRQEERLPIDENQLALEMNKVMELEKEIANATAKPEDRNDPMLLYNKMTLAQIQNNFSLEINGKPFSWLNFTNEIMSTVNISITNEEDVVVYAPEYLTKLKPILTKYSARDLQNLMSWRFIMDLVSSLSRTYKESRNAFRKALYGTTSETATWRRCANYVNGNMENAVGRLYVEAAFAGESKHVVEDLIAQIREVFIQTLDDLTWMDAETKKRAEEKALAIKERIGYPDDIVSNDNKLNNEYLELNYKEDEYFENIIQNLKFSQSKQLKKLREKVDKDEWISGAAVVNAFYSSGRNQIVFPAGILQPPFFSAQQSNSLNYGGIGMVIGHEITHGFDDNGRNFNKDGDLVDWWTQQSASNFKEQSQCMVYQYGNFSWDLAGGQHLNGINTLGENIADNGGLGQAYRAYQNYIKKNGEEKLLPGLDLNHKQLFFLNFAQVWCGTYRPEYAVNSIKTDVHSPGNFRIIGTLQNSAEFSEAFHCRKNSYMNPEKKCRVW

Row | SMILES | Ki [nM]
1 | O=C(N[C@H](Cc1ccc(-c2ccccc2)cc1)C[C@@H](CO)C(=O)O)c1nc(Cl)n[nH]1 [Example 2A, (2S,4S)-5-Biphenyl-4-yl-4-[(5-chloro-2H-[1,2,4]-triazole-3-carbonyl)-amino]-2-hydroxymethyl-pentanoic acid] | 1.26 to 10
2 | O=C(N[C@H](Cc1ccc(-c2ccccc2)cc1)C[C@H](CO)C(=O)O)c1cnn[nH]1 [Example 4-1, (2R,4S)-5-Biphenyl-4-yl-2-hydroxymethyl-4-[(3H-[1,2,3]triazole-4-carbonyl)-amino]-pentanoic acid] | 1.26 to 10
3 | O=C(N[C@H](Cc1ccc(-c2ccccc2F)cc1)C[C@@H](CO)C(=O)O)c1cnn[nH]1 [Example 4-2, (2S,4S)-5-(2′-Fluorobiphenyl-4-yl)-2-hydroxymethyl-4-[(3H-[1,2,3]triazole-4-carbonyl)-amino]-pentanoic acid] | ≤ 1
4 | O=C(N[C@H](Cc1ccc(-c2cccc(F)c2)cc1)C[C@@H](CO)C(=O)O)c1cnn[nH]1 [Example 4-3, (2S,4S)-5-(3′-Fluorobiphenyl-4-yl)-2-hydroxymethyl-4-[(3H-[1,2,3]triazole-4-carbonyl)-amino]-pentanoic acid] | ≤ 1
5 | O=C(N[C@H](Cc1ccc(-c2ccccc2)cc1)C[C@@H](CO)C(=O)O)c1cn(O)nn1 [Example 4-7, (2S,4S)-5-Biphenyl-4-yl-2-hydroxymethyl-4-[(1-hydroxy-1H-[1,2,3]triazole-4-carbonyl)-amino]-pentanoic acid] | ≤ 1
6 | O=C(N[C@H](Cc1ccc(-c2ccccc2F)cc1)C[C@@H](CO)C(=O)O)c1cn(O)nn1 [Example 4-8, (2S,4S)-5-(2′-Fluorobiphenyl-4-yl)-2-hydroxymethyl-4-[(1-hydroxy-1H-[1,2,3]triazole-4-carbonyl)-amino]-pentanoic acid] | ≤ 1
7 | O=C(N[C@H](Cc1ccc(-c2cccc(Cl)c2)cc1)C[C@@H](CO)C(=O)O)c1c[nH]nn1 [Example 4-9, (2S,4S)-5-(3′-Chloro-biphenyl-4-yl)-2-hydroxymethyl-4-[(1H-[1,2,3]triazole-4-carbonyl)-amino]-pentanoic acid] | ≤ 1
8 | O=C(N[C@H](Cc1ccc(-c2cccc(Cl)c2)cc1)C[C@@H](CO)C(=O)O)c1cn(O)nn1 [Example 4-10, (2S,4S)-5-(3′-Chloro-biphenyl-4-yl)-2-hydroxymethyl-4-[(1-hydroxy-1H-[1,2,3]triazole-4-carbonyl)-amino]-pentanoic acid] | ≤ 1
9 | Cc1n[nH]c(C(=O)N[C@H](Cc2ccc(-c3ccccc3)cc2)C[C@@H](CO)C(=O)O)n1 [Example 4-13, (2S,4S)-5-Biphenyl-4-yl-2-hydroxymethyl-4-[(5-methyl-2H-[1,2,4]triazole-3-carbonyl)-amino]-pentanoic acid] | 12.6 to 100
10 | O=C(N[C@H](Cc1ccc(-c2ccccc2)cc1)C[C@@H](CO)C(=O)O)c1nc(O)n[nH]1 [Example 4-14, (2S,4S)-5-Biphenyl-4-yl-2-hydroxymethyl-4-[(5-hydroxy-2H-[1,2,4]triazole-3-carbonyl)-amino]-pentanoic acid] | ≤ 1
11 | O=C(N[C@H](Cc1ccc(-c2ccccc2F)cc1)C[C@@H](CO)C(=O)O)c1nc(Cl)n[nH]1 [Example 4-16, (2S,4S)-4-[(5-Chloro-2H-[1,2,4]triazole-3-carbonyl)-amino]-5-(2′-fluorobiphenyl-4-yl)-2-hydroxymethyl-pentanoic acid] | ≤ 1

Same assay, conditions: pKi values at human NEP; recombinant human NEP, fluorogenic peptide substrate, 37° C.

Row | SMILES | pKi
12 | O=C(N[C@H](Cc1ccc(-c2ccccc2)cc1)C[C@@H](CO)C(=O)O)c1cnn[nH]1 [Example 1B, (2S,4S)-5-Biphenyl-4-yl-2-hydroxymethyl-4-[(3H-[1,2,3]triazole-4-carbonyl)-amino]-pentanoic acid] | ≥9.0
13 | O=C(N[C@H](Cc1ccc(-c2cccc(F)c2)cc1)C[C@@H](CO)C(=O)O)c1nc(Cl)n[nH]1 [Example 3B, (2S,4S)-4-[(5-Chloro-2H-[1,2,4]triazole-3-carbonyl)amino]-5-(3′-fluorobiphenyl-4-yl)-2-hydroxymethyl-pentanoic acid] | ≥9.0
